According to the NIST ThermoML archive (doi:10.1016/j.jct.2016.08.010):

What was measured:
[1] = molar heat capacity at constant pressure; xn = mol fraction of the nth substance listed; conditions: 100 kPa, Liquid, Small sample (50 mg) DSC
[2] = excess molar enthalpy (molar enthalpy of mixing); xn = mol fraction of the nth substance listed; conditions: 298.15 K, 100 kPa, Liquid, Power-compensation calorimetry

CCCCn1cc[n+](C)c1C.F[B-](F)(F)F [1-butyl-2,3-dimethylimidazolium tetrafluoroborate] + CCCCn1cc[n+](C)c1.F[B-](F)(F)F
molar heat capacity at constant pressure [J/K/mol], [1]
Conditions | 293.15 K | 298.15 K | 303.15 K | 308.15 K
x1 = 0.0944 | 372.33 | 374.56 | 376.3 | 378.14
x1 = 0.1139 | 374.5 | 376.61 | 378.27 | 379.93
x1 = 0.1685 | 380.51 | 382.42 | 383.87 | 385.43
x1 = 0.1964 | 383.54 | 385.39 | 386.73 | 388.21
x1 = 0.2219 | 386.3 | 388.04 | 389.27 | 390.78
x1 = 0.2761 | 391.8 | 393.45 | 394.59 | 396.01
x1 = 0.325 | 396.42 | 397.97 | 399.09 | 400.41
x1 = 0.3616 | 399.58 | 401.14 | 402.27 | 403.61
x1 = 0.4192 | 404.04 | 405.54 | 406.68 | 408.07
x1 = 0.4769 | 407.66 | 409.23 | 410.42 | 411.83
x1 = 0.5228 | 410.01 | 411.58 | 412.83 | 414.29
x1 = 0.5749 | 412.12 | 413.7 | 415.09 | 416.68
x1 = 0.6325 | 413.66 | 415.36 | 416.86 | 418.94
x1 = 0.6877 | 414.45 | 416.32 | 418.24 | 420.31
x1 = 0.7386 | 414.74 | 416.82 | 419.32 | 421.29
x1 = 0.7922 | 414.58 | 416.97 | 419.35 | 421.84
x1 = 0.8479 | 414.36 | 416.75 | 419.41 | 422.19
x1 = 0.8832 | 413.81 | 416.53 | 419.16 | 421.93
x1 = 1 | 413.03 | 416.01 | 418.84 | 421.7

[2]
Conditions | excess molar enthalpy [kcal/mol]
x1 = 0.0861 | 0.00327
x1 = 0.1386 | 0.00523
x1 = 0.1972 | 0.00734
x1 = 0.2455 | 0.00889
x1 = 0.2945 | 0.0104
x1 = 0.3428 | 0.0114
x1 = 0.3917 | 0.0121
x1 = 0.4457 | 0.0125
x1 = 0.5019 | 0.0125
x1 = 0.5637 | 0.0117
x1 = 0.6097 | 0.0109
x1 = 0.6637 | 0.00963
x1 = 0.7076 | 0.00858
x1 = 0.7611 | 0.00691
x1 = 0.8042 | 0.00564
x1 = 0.8462 | 0.00437
x1 = 0.8827 | 0.00325
x1 = 0.9144 | 0.0023

CCCCn1cc[n+](C)c1C.F[B-](F)(F)F [1-butyl-2,3-dimethylimidazolium tetrafluoroborate] + CCn1cc[n+](C)c1.F[B-](F)(F)F
molar heat capacity at constant pressure [J/K/mol], [1]
Conditions | 293.15 K | 298.15 K | 303.15 K | 308.15 K
x1 = 0.1129 | 319.45 | 321.79 | 324.44 | 327.05
x1 = 0.1657 | 325.94 | 328.52 | 331.39 | 334.26
x1 = 0.2189 | 331.85 | 334.58 | 337.61 | 340.64
x1 = 0.2743 | 337.42 | 340.23 | 343.39 | 346.51
x1 = 0.3272 | 342.26 | 345.15 | 348.38 | 351.58
x1 = 0.3729 | 346.15 | 349.09 | 352.37 | 355.65
x1 = 0.4382 | 351.36 | 354.4 | 357.74 | 361.09
x1 = 0.4917 | 355.44 | 358.6 | 362.01 | 365.39
x1 = 0.5242 | 357.91 | 361.14 | 364.6 | 368.01
x1 = 0.5687 | 361.32 | 364.66 | 368.19 | 371.64
x1 = 0.6042 | 364.11 | 367.55 | 371.14 | 374.62
x1 = 0.6468 | 367.63 | 371.19 | 374.82 | 378.34
x1 = 0.6931 | 371.7 | 375.37 | 379.1 | 382.63
x1 = 0.7244 | 374.62 | 378.4 | 382.14 | 385.71
x1 = 0.785 | 380.94 | 384.83 | 388.57 | 392.14
x1 = 0.8149 | 384.44 | 388.32 | 392.05 | 395.57
x1 = 0.8633 | 390.63 | 394.43 | 398.1 | 401.56
x1 = 0.9107 | 397.48 | 401.14 | 404.65 | 407.96
x1 = 1 | 413.03 | 416.01 | 418.84 | 421.7

[2]
Conditions | excess molar enthalpy [kcal/mol]
x1 = 0.0907 | -0.0636
x1 = 0.1357 | -0.0796
x1 = 0.1849 | -0.088
x1 = 0.2377 | -0.0856
x1 = 0.2839 | -0.0762
x1 = 0.3341 | -0.0593
x1 = 0.3729 | -0.0437
x1 = 0.4351 | -0.0139
x1 = 0.4972 | 0.0184
x1 = 0.5483 | 0.0452
x1 = 0.5967 | 0.0684
x1 = 0.6417 | 0.0884
x1 = 0.6978 | 0.105
x1 = 0.7424 | 0.114
x1 = 0.7909 | 0.117
x1 = 0.8345 | 0.109
x1 = 0.8758 | 0.0958
x1 = 0.9035 | 0.0829

CCn1cc[n+](C)c1.F[B-](F)(F)F [1-ethyl-3-methylimidazolium tetrafluoroborate] + CCCCn1cc[n+](C)c1.F[B-](F)(F)F
molar heat capacity at constant pressure [J/K/mol], [1]
Conditions | 293.15 K | 298.15 K | 303.15 K | 308.15 K
x2 = 0 | 303.2 | 304.53 | 306.29 | 308.03
x2 = 0.0731 | 314.45 | 315.32 | 316.58 | 318.02
x2 = 0.1164 | 321.05 | 322.12 | 323.51 | 324.76
x2 = 0.1692 | 328.75 | 329.72 | 330.85 | 332.16
x2 = 0.2144 | 335.06 | 336 | 337.17 | 338.49
x2 = 0.2672 | 341.92 | 342.87 | 344.05 | 345.42
x2 = 0.3259 | 348.89 | 349.85 | 351.13 | 352.54
x2 = 0.3827 | 354.65 | 355.77 | 357.13 | 358.55
x2 = 0.4365 | 359.23 | 360.56 | 362.07 | 363.61
x2 = 0.4722 | 361.72 | 363.22 | 364.73 | 366.24
x2 = 0.535 | 365.27 | 367.01 | 368.62 | 370.2
x2 = 0.5968 | 367.7 | 369.31 | 370.93 | 372.58
x2 = 0.6379 | 368.54 | 370.31 | 371.89 | 373.53
x2 = 0.6857 | 369.02 | 370.78 | 372.53 | 374.23
x2 = 0.7446 | 369.21 | 371.07 | 372.68 | 374.41
x2 = 0.7732 | 368.94 | 370.9 | 372.67 | 374.4
x2 = 0.8293 | 368.08 | 370.08 | 371.76 | 373.59
x2 = 0.876 | 367.14 | 369.26 | 371.02 | 372.8
x2 = 0.9253 | 365.44 | 367.47 | 369.72 | 371.83

[2]
Conditions | excess molar enthalpy [kcal/mol]
x2 = 0.0714 | 0.00215
x2 = 0.1234 | 0.00387
x2 = 0.1781 | 0.00574
x2 = 0.2396 | 0.00786
x2 = 0.2944 | 0.00946
x2 = 0.3468 | 0.0108
x2 = 0.3972 | 0.0117
x2 = 0.4428 | 0.0123
x2 = 0.4859 | 0.0126
x2 = 0.5374 | 0.0126
x2 = 0.5884 | 0.0122
x2 = 0.6291 | 0.0117
x2 = 0.6724 | 0.0109
x2 = 0.7172 | 0.00975
x2 = 0.7639 | 0.00839
x2 = 0.8109 | 0.00684
x2 = 0.8642 | 0.00485
x2 = 0.9077 | 0.00327
